Measurements published in patent US6495590B1, “Use of amtolmetin guacyl for the production of anti-inflammatory drugs for intestinal inflammations” (Medosan Ricerca S.r.l., priority 1998, dated 2002).

Legend:
[1] = system: rabbit PRP (plasma rich in platelets); test: Platelet aggregation on rabbit PRP, agonist arachidonic acid sodium salt; type: cell-based; details: Oryctolagus cuniculus
Method: (§1) Male New Zealand rabbits, 2000-3000 g [Stefano Morini, S. Polo D'Enza, RE Italy], quarantined for 5 days prior beginning of the trial (anti-piatelet effect). Male Wistar rats, 250±20 g [IFFA CREDO, Italy] randomized, divided into groups of 5 animals each and fasted for 16 h prior to treatment (thromboanemia determination).
(§2) Blood was intracardially collected from rabbits, using as anticoagulant sodium citrate at a final concentration of 0.38% and centrifuged for 15′ at 150 g in order to obtain a plasma rich in platelets (PRP). PRP was used at a concentration of 3.5×10^8 platelet/ml. MED 15 and reference products were incubated with the PRP for 3′ at 37 C° prior to addition of the aggregating agent. Platelet aggregation induced by arachidonic acid, sodium salt [TAC (threshold aggregation concentration): 140 μm] and collagen (TAC: 28 μg/ml) was measured using an aggregometer (Chronolog model 500) according to the Born's method ([…]. Nature 1962; 194: 927-929) and was expressed as inhibition percentage with respect to the agonist mean response.

[2] = system: rabbit PRP (plasma rich in platelets); test: Platelet aggregation on rabbit PRP, agonist collagen; type: cell-based; details: Oryctolagus cuniculus
Method: as §1, §2

TXB2 plasma levels = test: TXB2 (thromboxane) determination in rat; type: in vivo; details: for TXB2 ng/ml ± S.E. / inhibition at 100 mg/kg: 100 mg/kg per os, blood 3 h after treatment; for TXB2 ng/ml ± S.E.: controls 174.1 ± 42.6; for inhibition at 100 mg/kg: po, vs controls; for % inhibition of TXB2 plasma levels: kinetics
Method: as §1
The animals received per OS 100 mg/kg (1.5 ml/rat) MED 15 and (acetyl salicylic acid) suspended in 1% CMC, and controls received the vehicle only. […] Tromboxane content was determined in the serum thus obtained using a RIA kit [Amersham TRK780]. The results obtained can be evaluated with reference to the following tables and figures.

[3] = system: indomethacin-induced small intestine inflammation; test: Indomethacin-induced small intestine inflammation; type: in vivo, rat
Method: (§3) Male Wistar rats, 180±20g quarantined for at least 5days and fasted for 18 h prior to the beginning of the trial (on a grid to avoid coprophagy) with free access to water.
The animals were treated with indomethacin (7.5 mg/Kg by subcutaneous administration in NaHCO3 5%) at T=0 and T=+1 day.
MED 15 (100 mg/Kg per os in 1% CMC) was administered according to two different treatments:
Scheme no. 1: T=0, +1 and 2 days
Scheme no. 2: T=0, +1, +2, +5, +6, +7 days
24 h after the last administration the animals were killed by cervical dislocation; the small intestine (from the pylorus to the ileocecal valve), removed and opened lengthwise, was washed in physiological solution at pH 7.4 for damage evaluation.
Considered parameters are: […]
myeloperoxidase (MPO), neutrophil indicator; malondialdehyde (MDA), oxidative process indicator. data were evaluated by Student's t-test

[4] = system: acetic acid-induced colitis; test: Acetic acid-induced colitis; type: in vivo, rat; details: MED 15 100 mg/Kg per os at T-48 h, -24 h, -2 h; acetic acid controls 949±66
Method: as §3
Colitis was induced in animals by administration of 5% acetic acid (1.5 ml/rat) in the distal colon lumen with an 8 cm cannula at T=0.
MED 15 (100 mg/Kg per os) was administered at T−48 h, −24 h and −2 h.
24 h after colitis induction, animals were killed by cervical dislocation and the colon removed and washed in physiological solution at pH 7.4, was examined for damage evaluation.
(§4) Considered parameters are:
malondialdehyde (MDA), oxidative process indicator.
(§5) data were evaluated by Student's t-test

TNB-induced colitis = test: TNB-induced colitis; type: in vivo, rat; details: MED 15 100 mg/Kg per os T=0, +1, +2, +3 days
Method: as §3
Colitis was induced in animals by administration of 15 mg TNB (trinitrobenzosulphonic acid) in 0.25 ml of 30% ethanol in the colon lumen and with an 8 cm cannula at T=0.
MED 15 (100 mg/Kg per os in 1% CMC) was administered to:
5 h after the last administration the animals were killed by cervical dislocation, the colon (8 cm distal portion) removed for damage evaluation.
as §4
myeloperoxidase (MPO), neutrophil indicator;
as §5

human ulcerative colitis = test: Double-blind, controlled, randomized clinical trial in ulcerative colitis; type: in vivo; details: MED 15 1200 mg/day plus 5-aminosalicylic acid, 60 days, vs 5-ASA plus placebo
Method: A double-blind, controlled, randomized study was carried out in patients affected by two simultaneous pathologies: ulcerative colitis and osteoarticolar disease (osteoarthritis, rheumatoid arthritis, extra-articular rheumatism).
20 patients were divided into 2 homogeneous groups of 10 patients each (Group A and Group B):
Group A was treated with 5-aminosalicylic acid 1200 mg/day and placebo
Group B was treated with 5-aminosalicylic acid […] and MED 15 1200 mg/day
The following clinical evaluations were performed at the beginning of the study (T0), T15, T30, and T60 (end of therapy):
1) endoscopic examination of intestinal mucosa
2) annotation of symptomatology referred by the patients.
The severity of these parameters was expressed by a score as follows: […]

CC(=O)Oc1ccccc1C(=O)O [ASA, acetylsalicylic acid, reference compound]
inhibition at 25 µM ([1]; 25.0 μM): 0%
inhibition at 50 µM ([1]; 50.0 μM): 83.3 ± 16.7%
inhibition at 100 µM ([1]; 100.0 μM): 100%
inhibition at 12.5 µM ([2]; 12.5 μM): 18.4 ± 10.5%
inhibition at 25 µM ([2]; 25.0 μM): 33.7 ± 2.1%
inhibition at 50 µM ([2]; 50.0 μM): 70.4 ± 14.9%
inhibition at 100 µM ([2]; 100.0 μM): 100%
TXB2 ng/ml ± S.E. (TXB2 plasma levels): 2.9 ± 1.1 ng/mL
inhibition at 100 mg/kg (TXB2 plasma levels): 98.3%

COc1ccccc1OC(=O)CNC(=O)Cc1ccc(C(=O)c2ccc(C)cc2)n1C [MED 15, 2-metoxyphenyl-1-methyl-5-p-methylbenzoyl-pirrol-2-acetamido acetate]
reduction in the number of ulcers ([3]; scheme no. 1 (acute phase, T=0, +1 and 2 days), MED 15 100 mg/Kg per os, vs indomethacin controls): 44.3%
score ([3]; scheme no. 1, MED 15 100 mg/Kg per os, indomethacin controls 7.62±1.84): 4.63±2.73
tissutal levels of MPO ([3]; scheme no. 1, after MED 15 treatment 100 mg/Kg per os): diminution
decrease of score value ([3]; scheme no. 2 (prolonged), MED 15 100 mg/Kg per os): 58.4%
decrease in number of ulcers ([3]; scheme no. 2 (prolonged, T=0, +1, +2, +5, +6, +7 days), MED 15 100 mg/Kg per os): 86.1%
malondialdehyde levels [4]: 719 ± 60 nmol/g
colon walls weight, change compared to TNB control (TNB-induced colitis): −28.6%
myeloperoxidase levels, change compared to TNB control (TNB-induced colitis): −33.1%
score, change compared to TNB control (TNB-induced colitis): −35.2%
effectiveness in ulcerative colitis (mucosal inflammation and symptomatology scores) (human ulcerative colitis): more effective than 5-ASA
healing time (human ulcerative colitis): dramatically reduced compared to 5-ASA
inhibition at 0.5 µM ([1]; 0.5 μM): 7.7%
inhibition at 1.25 µM ([1]; 1.25 μM): 100%
inhibition at 2.5 µM ([1]; 2.5 μM): 100%
inhibition at 5 µM ([1]; 5.0 μM): 100%
inhibition at 0.05 µM ([2]; 0.05 μM): 0%
inhibition at 0.1 µM ([2]; 0.10 μM): 34.3%
inhibition at 0.39 µM ([2]; 0.39 μM): 100%
duration of the effect on TXB2 plasma levels (TXB2 plasma levels): 24 h
TXB2 ng/ml ± S.E. (TXB2 plasma levels): 14.3 ± 1.3 ng/mL
% inhibition of TXB2 plasma levels (TXB2 plasma levels; 0.75 h): 93.2%
% inhibition of TXB2 plasma levels (TXB2 plasma levels; 1.5 h): 90.8%
% inhibition of TXB2 plasma levels (TXB2 plasma levels; 3.0 h): 91.4%
% inhibition of TXB2 plasma levels (TXB2 plasma levels; 24.0 h): 49.2%
inhibition at 100 mg/kg (TXB2 plasma levels): 91.8%
